According to patent US20190365730A1, “ANAESTHETIC COMPOSITION COMPRISING ROPIVACAINE, PRILOCAINE AND LIDOCAINE” (priority 2017, published 2019):

Legend:
[1] = compared with prilocaine, lidocaine or ropivacaine; cited from earlier work
[2] = relative to lidocaine; cited from earlier work
[3] = animal models, compared with bupivacaine; cited from earlier work
[4] = test system: intact skin of the lower arm; assay: Pinprick test of anesthesis after topical application to intact skin of the lower arm; type: in vivo
Protocol: The pharmaceutical compositions were topically administered to intact skin of the arm and tested for anesthesis by pinpricks to a treated area of the skin. The sensation of pain was recorded for every puncture of the skin by the pin. […] The compositions were applied to intact skin of the lower arm in a circle area of a diameter of 1-2 cm. The amount of the composition applied to the skin was kept constant and left on the skin during the study. The treated area of intact skin was subjected to repeated pinpricks and the sensation of pain was recorded.

Structure (SMILES): CCCCN1CCCCC1C(=O)Nc1c(C)cccc1C (centres unmarked) [bupivacaine, 1-Butyl-N-(2,6-dimethylphenyl)-2-piperidinecarboxamide]
- toxicity [1]: more toxic than prilocaine, lidocaine or ropivacaine

Structure (SMILES): CCCN1CCCC[C@H]1C(=O)Nc1c(C)cccc1C.Cl.O [Ropivacaine, (S)-N-(2,6-dimethylphenyl)-1-propylpiperidine-2-carboxamide hydrochloride monohydrate]
- duration time of anesthesis compared to lidocaine [2]: about two
- cardiotoxicity [3]: less cardiotoxicity than bupivacaine
- duration of effect (effect lasted) [4]: 3 h
- onset of anesthesis [4]: approximately 1 hour
